Legend:
[1] = system: tumor-associated macrophage; assay: Fraction of tumor-associated macrophage in TIL, MC38 colon cancer cell transplant model (flow cytometry); type: in vivo, mouse
Procedure: MC38, a mouse colon cancer cell line, was provided by Dr. Yoshihiro Hayakawa (University of Toyama, Toyama, Japan). MC38 was cultured in RPMI 1640 medium containing 10% FBS. MC38 was subcultured in a 37° C., 5% CO2 incubator in a 1:3 to 1:5 ratio, one to two times a week.
A cell suspension of MC38 cells containing 2×10^6 cells/0.1 mL, was transplanted subcutaneously into a C57BL/6NJJcl mouse (CLEA Japan, Inc.), six weeks of age, in an area around the right last rib.
The tumor size was measured by measuring the major axis and minor axis of the tumor with a digimatic caliper, and TV was calculated using the following formula. TV (mm^3)=major axis (mm)×minor axis (mm)×minor axis (mm)/2 […]
The tumor was collected on the 10th day (Day 10) since administration was started, and a tumor suspension was prepared using a digestive enzyme treatment method. […] The isolated TILs were reacted with fluorescence-labeled anti-CD45 antibody, anti-CD90.2 (T cell marker) antibody, anti-CD11b (myeloid leukocyte marker) antibody, anti-Ly-6G (granulocytic bone marrow-derived suppressor cell marker) antibody, anti-Ly-6C (monocytic bone marrow-derived suppressor cell marker) antibody, and anti-F4/80 (macrophage marker) antibody, and the fraction of tumor-associated macrophage in TIL was calculated by fluorescence flow cytometry. […]

[2] = system: mouse colon cancer cell line MC38; assay: Antitumor effect (tumor volume) in MC38 colon cancer cell transplant model; type: in vivo; conditions: for TV, DAY 22 MEAN ± S.E.: N=10
Procedure: MC38, a mouse colon cancer cell line, was provided by Dr. Yoshihiro Hayakawa (University of Toyama, Toyama, Japan). MC38 was cultured in RPMI 1640 medium containing 10% fetal bovine serum (FBS). MC38 was subcultured in a 37° C., 5% CO2 incubator in a 1:3 to 1:5 ratio, one to two times a week.
A cell suspension as a suspension of MC38 cells in a 1:1 mixture of phosphate-buffered saline (PBS) and extracellular matrix component Matrigel was prepared, and the suspension, containing 1×10^6 cells/0.1 mL, was transplanted subcutaneously into a C57BL/6NCrl mouse (Charles River Laboratories Japan Inc.), six weeks of age, in an area around the right last rib.
(§1) The tumor size was measured by measuring the major axis and minor axis of the tumor with a digimatic caliper, and TV was calculated using the following formula. TV (mm^3)=major axis (mm)×minor axis (mm)×minor axis (mm)/2
The animals were divided into groups of 10 using a stratified random grouping method, using TV as an index. The day the grouping was made (N=10) was designated as Day 1.
(§2) A methanesulfonic acid salt of compound 1 was pulverized with an agate mortar, and was prepared into a solution having a concentration of 5 mg/mL as its free form, using a solvent. The compound was then dissolved by sonication to prepare a 50 mg/kg dosing solution. The dosing solution was diluted with solvent to prepare a 25 mg/kg dosing solution, and a 12.5 mg/kg dosing solution. These dosing solutions were orally administered as compound 1, once daily in a dose of 12.5 mg/kg/day, 25 mg/kg/day, or 50 mg/kg/day, continuously for 21 days.
(§3) The anti-mouse PD-1 antibody was intraperitoneally administered in a dose of 0.05 mg/body on the first day (Day 1) of administration and on the 8th day since administration was started.
(§4) The medicinal agents shown in Table 1 were administered in the schedules, doses, and dosage forms shown in Table 1 (administered group No. 1 to No. 8).
A Dunnett's test (significance level 0.05) was conducted to analyze Day 22 TV for each group.

[3] = system: tumor-associated macrophage; assay: Fraction of tumor-associated macrophage in TIL, EMT6 breast cancer cell transplant model (flow cytometry); type: in vivo, mouse
Procedure: EMT6, a mouse breast cancer cell line, was obtained from ATCC. EMT6 was cultured in Waymouth's MB752/1 medium containing 15% FBS. EMT6 was subcultured in a 37° C., 5% CO2 incubator in a 1:3 to 1:5 ratio, one to two times a week.
(§5) A cell suspension as a suspension of EMT6 cells in a 1:1 mixture of PBS and extracellular matrix component Matrigel was prepared, and the suspension, containing 1×10^4 cells/0.1 mL, was transplanted subcutaneously into a BALB/c mouse (Charles River Laboratories Japan Inc.), six weeks of age, in an area around the right last rib.
After 4 days from transplantation, the animals were divided into groups of 5 using a stratified random grouping method, using body weight as an index. The day the grouping was made (N=5) was designated as Day 1.
A methanesulfonic acid salt of compound 1 was pulverized with an agate mortar, and was prepared into a solution having a concentration of 4.2 mg/mL as its free form, using a solvent. […]
The tumor was collected on the 7th day (Day 7) since administration was started, and a tumor suspension was prepared using a digestive enzyme treatment method. […] The isolated TILs were reacted with fluorescence-labeled anti-CD45 antibody, anti-CD90.2 antibody, anti-CD11b antibody, anti-Ly-6G antibody, anti-Ly-6C antibody, and anti-F4/80 antibody, and the fraction of tumor-associated macrophage in TIL was calculated by fluorescence flow cytometry. […]

[4] = system: mouse breast cancer cell line EMT6; assay: Antitumor effect (tumor volume) in EMT6 breast cancer cell transplant model; type: in vivo
Procedure: EMT6, a mouse breast cancer cell line, was obtained from American Type Culture Collection (ATCC). EMT6 was cultured in Waymouth's MB752/1 medium containing […]. EMT6 was subcultured in a 37° C., 5% CO2 incubator in a 1:3 to 1:5 ratio, one to two times a week.
as §5, §1
The animals were divided into groups of 15 using a stratified random grouping method, using TV as an index. The day the grouping was made (N=15) was designated as Day 1.
A methanesulfonic acid salt of compound 1 was pulverized with an agate mortar, and was prepared into a solution having a concentration of 4.2 mg/mL as its free form, using a solvent. The compound was then dissolved by sonication to prepare a 42 mg/kg dosing solution. The dosing solution was orally administered as compound 1, once daily in a dose of 42 mg/kg/day, continuously for 14 days. […]

[5] = system: mouse MC38 tumor model; assay: Dose finding of compound 1 in mouse MC38 tumor model; type: in vivo; conditions: orally administered once daily for 21 days
Procedure: An experiment was conducted with mouse MC38 tumor model. Tumor cells were cultured in vitro and transplanted subcutaneously into male mice, six weeks of age, in the right chest region, followed by daily administration of compound 1 and a control antibody. […] This dose (oral continuous administration of 50 mg/kg for 21 days, q.d.) is equivalent to the recommended dose of compound 1 in humans when administered alone.

[6] = Percentage of body weight change in EMT6 breast cancer cell transplant model; type: in vivo, mouse; conditions: Compound 1 42 mg/kg p.o. q.d. Day 1-14 / PBS i.p.
Procedure: (§6) An electronic balance designed for animals was used for body weight measurement. A percentage of body weight change (BWCn) on day n was calculated from the body weight on day 1 (BW1) and the body weight (BWn) on day n using the following formula. Percentage of body weight change BWCn (%)=(BWn−BW1)/BW1×100
An electronic balance designed for animals was used for body weight measurement. A percentage of body weight change (BWCn) on day n was calculated in the same manner as in Example 1.
A methanesulfonic acid salt of compound 1 was pulverized with an agate mortar, and was prepared into a solution having a concentration of 4.2 mg/mL as its free form, using a solvent. The compound was then dissolved by sonication to prepare a 42 mg/kg dosing solution. The dosing solution was orally administered as compound 1, once daily in a dose of 42 mg/kg/day, continuously for 14 days.
The anti-mouse PD-1 antibody was intraperitoneally administered in a dose of 0.1 mg/body on the first day (Day 1) of administration, and on the 4th day (Day 4), the 8th day (Day 8), and the 11th day (Day 11) since administration was started.
The anti-mouse CTLA-4 antibody was intraperitoneally administered in a dose of 0.5 mg/body on the first day (Day 1) of administration, and after 4 days (Day 4), 8 days (Day 8), and 11 days (Day 11) from administration. […]

[7] = Percentage of body weight change in MC38 colon cancer cell transplant model; type: in vivo, mouse
Procedure: as §6, §2, §3, §4

SMILES: CNC(=O)c1cc2c(Oc3ccc(NC(=S)NC(=O)Cc4ccccc4)cc3F)ccnc2cc1OC [Compound 1, 4-(2-fluoro-4-(3-(2-phenylacetyl)thioureido)phenoxy)-7-methoxy-N-methylquinoline-6-carboxamide]
- Fraction of tumor-associated macrophage MEAN ± S.E. ([1]; Compound 1 25 mg/kg p.o. q.d. Day 1-9, tumor collected Day 10, N=5): 8.2 ± 2.3%
- fraction of tumor-associated macrophage versus control group (No. 1), result in words ([1]; Dunnett's test, significance level 0.05, doses as in Table 2): significantly smaller fractions of tumor-associated macrophage than control group
- TV, DAY 22 MEAN ± S.E. ([2]; Compound 1 12.5 mg/kg p.o. q.d. Day 1-21 / PBS i.p. Day 1, 8): 1007 ± 161 mm^3
- TV, DAY 22 MEAN ± S.E. ([2]; Compound 1 25 mg/kg p.o. q.d. Day 1-21 / PBS i.p. Day 1, 8): 763 ± 50 mm^3
- TV, DAY 22 MEAN ± S.E. ([2]; Compound 1 50 mg/kg p.o. q.d. Day 1-21 / PBS i.p. Day 1, 8): 437 ± 62 mm^3
- Day 22 TV versus control group (No. 1), result in words ([2]; Dunnett's test, significance level 0.05, doses as in Table 1): significantly smaller TVs than control group
- Fraction of tumor-associated macrophage MEAN ± S.E. ([3]; Compound 1 42 mg/kg p.o. q.d. Day 1-6, tumor collected Day 7, N=5): 20.3 ± 4.8%
- fraction of tumor-associated macrophage versus control group (No. 1), result in words ([3]; Dunnett's test, significance level 0.05, doses as in Table 4): significantly smaller fraction of tumor-associated macrophage than control group
- TV, DAY 15 MEAN ± S.E. ([4]; Compound 1 42 mg/kg p.o. q.d. Day 1-14 / PBS i.p. Day 1, 4, 8, 11, N=15): 312 ± 29 mm^3
- Day 15 TV versus control group (No. 1), result in words ([4]; Dunnett's test, significance level 0.05, doses as in Table 3): significantly smaller TVs than control group
- preferred minimum dose that produces the maximum efficacy in the mouse [5]: 50 mg/kg
- BWC15 MEAN ± S.E. [6]: 3.2 ± 1.0%
- BWC22 MEAN ± S.E. ([7]; Compound 1 12.5 mg/kg p.o. q.d. Day 1-21 / PBS i.p.): 6.1 ± 0.7%
- BWC22 MEAN ± S.E. ([7]; Compound 1 25 mg/kg p.o. q.d. Day 1-21 / PBS i.p.): 5.0 ± 0.9%
- BWC22 MEAN ± S.E. ([7]; Compound 1 50 mg/kg p.o. q.d. Day 1-21 / PBS i.p.): −0.3 ± 0.9%

Reference: US12280045B2, “Antitumor agent and antitumor effect potentiator” (TAIHO PHARMACEUTICAL CO., LTD., priority 2017, dated 2025)
